In brackets after ≈: the same amount, converted by molar mass. Where two headings read alike, the source gives them in different places.
Columns and labels:
[1] = system: HeLa-cells; assay: Minimal toxic concentration, cell morphology of HeLa-cells; type: cell-based
[2] = Cytotoxicity, reduction of cell growth (Table 1, CMV); type: cell-based; settings: Table 1, cytomegalovirus
[3] = system: Cytomegalovirus Davis strain; assay: Cytomegalovirus antiviral activity, Davis strain; type: cell-based; settings: Human betaherpesvirus 5, read-out: IC50: concentration at which the virus production is inhibited by 50%
Description: (§1) The compounds were tested for antiviral activity by the Rega Institute (Leuven, Belgium). The standard experiments for determining the biological activity of the compounds according to the invention were performed with CMV (Cytomegalovirus), varicella zoster virus, and RSV (respiratory syncytial virus). [table]

[4] = system: Cytomegalovirus AD-169 strain; assay: Cytomegalovirus antiviral activity, AD-169 strain; type: cell-based; settings: Human betaherpesvirus 5, AD169, read-out: IC50: concentration at which the virus production is inhibited by 50%
Description: as §1

[5] = system: Respiratory syncytial virus; assay: Respiratory syncytial virus antiviral activity; type: cell-based; settings: human respiratory syncytial virus, read-out: IC50: concentration at which the virus production is inhibited by 50%
Description: (§2) The compounds were tested for antiviral activity by the Rega Institute (Leuven, Belgium).
(§3) The standard experiments for determining the biological activity of the compounds according to the invention were performed with CMV (Cytomegalovirus), varicella zoster virus, and RSV (respiratory syncytial virus).

[6] = system: TK − VZV 07/1 strain; assay: microbe, parasite or virus in culture; type: cell-based, Varicella zoster virus; settings: Human alphaherpesvirus 3, read-out: IC50: concentration at which the virus production is inhibited by 50%
Description: as §2, §3

[7] = system: TK − VZV YS/R strain; assay: microbe, parasite or virus in culture; type: cell-based, Varicella zoster virus; settings: Human alphaherpesvirus 3, read-out: IC50: concentration at which the virus production is inhibited by 50%
Description: as §2, §3

[8] = Cytotoxicity, reduction of cell growth (Table 2, VZV); type: cell-based; settings: Table 2, varicella zoster virus
[9] = microscopically detectable change in normal cell morphology of HeLa-cells

Molecule | MTC: Minimal toxic concentration [1] [mg/mL] | CC50 [2] [µg/mL] | IC50 [3] [µg/mL] | IC50 [4] [µg/mL] | IC50 [5] [µg/mL] | MTC: Minimal toxic concentration [1, 9] [mg/mL] | IC50 [6] [µg/mL] | IC50 [7] [µg/mL] | CC50 [8] [µg/mL] | melting point [°C]
4-[{2-(7-Coumarinyloxy)ethoxy}phenyl)-3,5-dimethoxycarbonyl-2,6-dimethyl-1,4-dihydropyridine.ethylacetate [Example 30] | 100 | – | – | – | – | – | – | – | – | –
Nc1nc2c(ncn2COC(CO)CO)c(=O)[nH]1 [DHPG, 9-[(1,3-dihydroxy-2-propoxy)methyl]guanine, reference compound] | – | > 200 | 1.8 (≈ 7.05 µM) | 1.8 (≈ 7.05 µM) | – | – | – | – | – | –
COC(=O)C1=C(C)NC(C)=C(C(=O)OCCOc2cc(=O)oc3ccccc23)C1c1ccccc1 (centres unmarked) [Example 1, 2,6-Dimethyl-4-phenyl-5-methoxycarbonyl-3-[{2-(coumarin-4-yloxy)ethoxy}carbonyl]-1,4-dihydropyridine] | – | – | – | – | 2.4 (≈ 5.05 µM) | 100 | 1.5 (≈ 3.15 µM) | 1 (≈ 2.1 µM) | 4.5 (≈ 9.46 µM) | –
COC(=O)C1=C(C)NC(C)=C(C(=O)OCCCOc2cc(=O)oc3ccccc23)C1c1ccccc1 (centres unmarked) [Example 4, 3-[{3-(Coumarin-4-yloxy)-1-propoxy}carbonyl]-2,6-dimethyl-5-methoxycarbonyl-4-phenyl-1,4-dihydropyridine] | – | – | – | – | 0.16 (≈ 0.327 µM) | 2.8 | – | – | – | –
COC(=O)C1=C(C)NC(C)=C(C(=O)OCC(C)(C)COc2cc(=O)oc3ccccc23)C1c1ccccc1 (centres unmarked) [Example 6, 3-[{3-(Coumarin-4-yloxy)-2,2-dimethyl-1-propoxy}carbonyl]-2,6-dimethyl-5-methoxycarbonyl-4-phenyl-1,4-dihydropyridine] | – | – | – | – | – | – | 2 (≈ 3.86 µM) | 1 (≈ 1.93 µM) | 8.5 (≈ 16.4 µM) | –
CCOC(=O)C1=C(C)NC(COc2cc(=O)oc3ccccc23)=C(C(=O)OCC)C1c1cccc([N+](=O)[O-])c1 (centres unmarked) [Example 20, 2-(Coumarin-4-yloxymethyl)-3,5-diethoxycarbonyl-6-methyl-4-(3-nitrophenyl)-1,4-dihydropyridine] | – | – | – | – | – | – | 0.07 (≈ 0.131 µM) | 0.05 (≈ 0.0935 µM) | 1.6 (≈ 2.99 µM) | 76 to 79
CCOC(=O)C1=C(C)NC(COc2cc(=O)oc3ccccc23)=C(C(=O)OCC)C1c1ccccc1C(F)(F)F (centres unmarked) [Example 24, 2-(Coumarin-4-yloxymethyl)-3,5-diethoxycarbonyl-6-methyl-4-(2-trifluoromethylphenyl)-1,4-dihydropyridine] | – | > 200 | 2.3 (≈ 4.13 µM) | 2.4 (≈ 4.3 µM) | 0.8 (≈ 1.43 µM) | 4.0 | 2.5 (≈ 4.48 µM) | 1.5 (≈ 2.69 µM) | > 200 | –
